Holding throughout (type): functional
The subject of one experiment is P388. The experiment is described as follows: Cytotoxicity against mouse P388 cells after 72 hrs by MTT assay. Conditions: for IC50: P388, 72 h, read-out: ID50 (the source's name). For orientation: Tetrazolium assays rely on reduction of a dye to a coloured formazan, in cell work by metabolically active cells.
In a further experiment the test system is B16. The experiment is described as follows: Cytotoxicity against mouse B16 cells after 72 hrs by SRB assay. The conditions noted are these: for IC50: B16, 72 h, read-out: ID50 (the source's name).
A short description of experiment [1]: (§1) Cytotoxicity against human SW707 cells after 72 hrs by SRB assay. Conditions: SW707, 72 h, read-out: ID50 (the source's name). Background: In SRB staining, fixed cells bind dye roughly in proportion to their protein.
Another experiment deals with CCRF-CEM. The experiment is described as follows: Cytotoxicity against human CCRF-CEM cells after 72 hrs by SRB assay. The conditions noted are these: for IC50: read-out: ID50 (the source's name).
For another experiment, the system named is SW707. The description is as §1.

The values that follow come from ChEMBL document CHEMBL1157346, “Synthesis and antiproliferative activity in vitro of novel (2-butynyl)thioquinolines” (2008).

≈ marks a conversion by molar mass, not a printed value. Calls of active or inactive are those of the source. The rule behind the calls is not given here.

Regarding `C#CCSc1cnc2ccccc2c1[Se]CC#CCBr`, the IC50 turned out to be 1.2 µg/mL (≈ 2.93 µM) in the experiment with P388, 4.2 µg/mL (≈ 10.3 µM) with B16, 2.2 µg/mL (≈ 5.38 µM) in experiment [1] and 0.3 µg/mL (≈ 0.733 µM) in the experiment with CCRF-CEM.
With `OCC#CCSc1cnc2ccccc2c1[Se]CC#CCBr`, the IC50 came out at 1.6 µg/mL (≈ 3.64 µM) in the experiment with P388, 4.6 µg/mL (≈ 10.5 µM) in the experiment on B16, 2.8 µg/mL (≈ 6.37 µM) in experiment [1] and 0.2 µg/mL (≈ 0.455 µM) in the experiment with CCRF-CEM.
`CSc1c(SCC#CCO)cnc2ccccc12`: the IC50 in the experiment on P388 came to 32.3 µg/mL (≈ 117 µM); in experiment [1] it was 69.3 µg/mL (≈ 252 µM); with CCRF-CEM it was 13.9 µg/mL (≈ 50.5 µM). Also, the result in the experiment with B16 was inactive.
Regarding `CSc1cnc2ccccc2c1[Se]CC#CCO`, the IC50 with P388 is 2.6 µg/mL (≈ 8.07 µM); with B16, 4.2 µg/mL (≈ 13 µM); in experiment [1], 3.4 µg/mL (≈ 10.5 µM); in the experiment with CCRF-CEM it was 0.5 µg/mL (≈ 1.55 µM).
For the compound `CSc1cnc2ccccc2c1SCC#CCSc1c(SC)cnc2ccccc12`, the result in the experiment on P388, in the experiment on B16, in the experiment on SW707 and in the experiment with CCRF-CEM was inactive.
`C#CCSc1cnc2ccccc2c1SCC#CC[Se]c1c(SCC#CC)cnc2ccccc12`: the figures for the IC50 (in the experiment on P388; in experiment [1]; with CCRF-CEM) were 30.7 µg/mL (≈ 53.5 µM), 43 µg/mL (≈ 75 µM) and 30.3 µg/mL (≈ 52.8 µM), respectively. Further, in the experiment on B16, the result was inactive.
Regarding `CC#CCSc1cnc2ccccc2c1SCC#CCSc1c(SCC#CC)cnc2ccccc12`, the outcome in the experiment on P388, with B16, in the experiment with SW707 and with CCRF-CEM was inactive.
`C#CCSc1cnc2ccccc2c1[Se]CC#CCO`: the IC50 in the experiment on P388 turned out to be 3.1 µg/mL (≈ 8.95 µM); in the experiment on B16, 3.6 µg/mL (≈ 10.4 µM); in experiment [1], 3.3 µg/mL (≈ 9.53 µM); in the experiment on CCRF-CEM, 3.2 µg/mL (≈ 9.24 µM).
`OCC#CCSc1cnc2ccccc2c1SCC#CCO`: the IC50 was determined as 5.7 µg/mL (≈ 17.3 µM) in the experiment with P388, 42.2 µg/mL (≈ 128 µM) in the experiment on B16, 32 µg/mL (≈ 97.1 µM) in experiment [1] and 2.6 µg/mL (≈ 7.89 µM) in the experiment with CCRF-CEM.
In the case of `C#CCSc1cnc2ccccc2c1SCC#CCSc1c(SCC#C)cnc2ccccc12`, the outcome in the experiment with P388, in the experiment with B16, in the experiment with SW707 and with CCRF-CEM was inactive.
Turning to `C[Se]c1c(SCC#CCO)cnc2ccccc12`, the IC50 came out at 19.8 µg/mL (≈ 61.4 µM) with P388, 5.8 µg/mL (≈ 18 µM) with B16, 3.5 µg/mL (≈ 10.9 µM) in experiment [1] and 2.1 µg/mL (≈ 6.52 µM) with CCRF-CEM.
For `OCC#CCSc1cnc2ccccc2c1Cl`, the figures for the IC50 (with P388; in experiment [1]; with CCRF-CEM) were 2.4 µg/mL (≈ 9.1 µM), 6.2 µg/mL (≈ 23.5 µM) and 4.1 µg/mL (≈ 15.5 µM), respectively. For the same compound, in the experiment on B16, the outcome was inactive.
For `OCC#CCSc1cnc2ccccc2c1SCC#CCBr`, the IC50 in the experiment on P388 turned out to be 43.2 µg/mL (≈ 110 µM); with B16 it was 4.9 µg/mL (≈ 12.5 µM); in experiment [1], 36.2 µg/mL (≈ 92.3 µM); with CCRF-CEM it was 0.6 µg/mL (≈ 1.53 µM).
The matching figures for `CSc1cnc2ccccc2c1SCC#CCO`: 3.1 µg/mL (≈ 11.3 µM), 49.8 µg/mL (≈ 181 µM), 34.9 µg/mL (≈ 127 µM) and 2.3 µg/mL (≈ 8.35 µM).
Turning to `C#CCSc1c(SCC#CCO)cnc2ccccc12`, the IC50 is 13.3 µg/mL (≈ 44.4 µM) with P388 and 2.7 µg/mL (≈ 9.02 µM) in the experiment on CCRF-CEM. The outcome with B16 and with SW707 was inactive.
Turning to `C#CCSc1cnc2ccccc2c1SCC#CCO`, the IC50 with P388 was determined as 4 µg/mL (≈ 13.4 µM); with B16, 54.7 µg/mL (≈ 183 µM); in experiment [1], 42.6 µg/mL (≈ 142 µM); with CCRF-CEM it was 3.2 µg/mL (≈ 10.7 µM).
The corresponding values for `OCC#CCSc1cnc2ccccc2c1[Se]CC#CCO` are 4.1 µg/mL (≈ 10.9 µM), 4.3 µg/mL (≈ 11.4 µM), 26.6 µg/mL (≈ 70.7 µM) and 1.4 µg/mL (≈ 3.72 µM).
Consider `COc1c(SCC#CCO)cnc2ccccc12`, for which the IC50 in the experiment on P388 was found to be 23.2 µg/mL (≈ 89.5 µM); in experiment [1], 67.4 µg/mL (≈ 260 µM); with CCRF-CEM it was 22 µg/mL (≈ 84.8 µM). In addition, the result in the experiment with B16 was inactive.
In the case of `C#CC[Se]c1c(SCC#CCO)cnc2ccccc12`, the IC50 in the experiment with P388 is 2.5 µg/mL (≈ 7.22 µM); in the experiment with B16 it was 6.8 µg/mL (≈ 19.6 µM); in experiment [1] it was 3.8 µg/mL (≈ 11 µM); with CCRF-CEM, 1.9 µg/mL (≈ 5.49 µM).
